Experimental data from ChEMBL document CHEMBL1201862, “PubChem BioAssay data set” (2004).
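96-well plates; 48 h exposure; 5 concentrations. Endpoints by linear interpolation between flanking doses. Not reached: highest tested concentration assigned. GI50 marks 50% less growth.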 The source made the active and inactive calls. Rule as the data show it: active = GI50 up to about 1.1 µM and inactive = higher.

Columns and labels:
Assay in all cases: DTP human tumour cell line panel, 48 h
UO-31 = tested on: UO-31
NCI-H522 = tested on: NCI-H522
NCI-H460 = tested on: NCI-H460
EKVX = tested on: EKVX
Malme-3M = tested on: Malme-3M
SF-268 = tested on: SF-268
SW-620 = tested on: SW-620
CAKI-1 = tested on: CAKI-1
IGROV-1 = tested on: IGROV-1
SR = tested on: SR
MDA-N = tested on: MDA-N
HL-60 = tested on: HL-60
HCT-116 = tested on: HCT-116
SK-OV-3 = tested on: SK-OV-3
MDA-MB-435 = tested on: MDA-MB-435
OVCAR-4 = tested on: OVCAR-4
TK-10 = tested on: TK-10
KM12 = tested on: KM12
OVCAR-8 = tested on: OVCAR-8
COLO 205 = tested on: COLO 205
HCC 2998 = tested on: HCC 2998
A498 = tested on: A498
SNB-19 = tested on: SNB-19
HOP-62 = tested on: HOP-62
SF-295 = tested on: SF-295
MDA-MB-231 = tested on: MDA-MB-231
K562 = tested on: K562
MCF7 = tested on: MCF7
786-0 = tested on: 786-0
NCI/ADR-RES = tested on: NCI/ADR-RES
CCRF-CEM = tested on: CCRF-CEM
HCT-15 = tested on: HCT-15
A549 = tested on: A549
OVCAR-5 = tested on: OVCAR-5
ACHN = tested on: ACHN
BT-549 = tested on: BT-549
UACC-257 = tested on: UACC-257
SK-MEL-28 = tested on: SK-MEL-28
PC-3 = tested on: PC-3
Hs-578T = tested on: Hs-578T
U-251 = tested on: U-251
SK-MEL-5 = tested on: SK-MEL-5
OVCAR-3 = tested on: OVCAR-3
NCI-H226 = tested on: NCI-H226
SN12C = tested on: SN12C
M14 = tested on: M14
DU-145 = tested on: DU-145
RXF 393 = tested on: RXF 393
SK-MEL-2 = tested on: SK-MEL-2
HT-29 = tested on: HT-29
UACC-62 = tested on: UACC-62
HOP-92 = tested on: HOP-92
MOLT-4 = tested on: MOLT-4
T47D = tested on: T47D
NCI-H23 = tested on: NCI-H23
LOX IMVI = tested on: LOX IMVI
SNB-75 = tested on: SNB-75
SF-539 = tested on: SF-539

Oc1cccc(-c2cn3cc(C(F)(F)F)ccc3n2)c1
GI50 (UO-31): 0.338 µM (active)
GI50 (NCI-H522): 13.5 µM (inactive)
GI50 (NCI-H460): 26.1 µM (inactive)
GI50 (EKVX): 17.5 µM (inactive)
GI50 (Malme-3M): 27.9 µM (inactive)
GI50 (SF-268): 38.8 µM (inactive)
GI50 (SW-620): 67.8 µM (inactive)
GI50 (CAKI-1): 47.9 µM (inactive)
GI50 (IGROV-1): 20.4 µM (inactive)
GI50 (SR): 31.6 µM (inactive)
GI50 (MDA-N): 35.7 µM (inactive)
GI50 (HL-60): 32.6 µM (inactive)
GI50 (HCT-116): 39.9 µM (inactive)
GI50 (SK-OV-3): 33.4 µM (inactive)
GI50 (MDA-MB-435): 32 µM (inactive)
GI50 (OVCAR-4): 22.1 µM (inactive)
GI50 (TK-10): 22.5 µM (inactive)
GI50 (KM12): 28.6 µM (inactive)
GI50 (OVCAR-8): 27.8 µM (inactive)
GI50 (COLO 205): 39.2 µM (inactive)
GI50 (HCC 2998): 22.6 µM (inactive)
GI50 (A498): 37.5 µM (inactive)
GI50 (SNB-19): 70.1 µM (inactive)
GI50 (HOP-62): 48.8 µM (inactive)
GI50 (SF-295): 24.5 µM (inactive)
GI50 (MDA-MB-231): 43.7 µM (inactive)
GI50 (K562): 30.5 µM (inactive)
GI50 (MCF7): 15.4 µM (inactive)
GI50 (786-0): 54.6 µM (inactive)
GI50 (NCI/ADR-RES): 25.9 µM (inactive)
GI50 (CCRF-CEM): 24.1 µM (inactive)
GI50 (HCT-15): 29.2 µM
GI50 (A549): 28.6 µM (inactive)
GI50 (OVCAR-5): 37.2 µM (inactive)
GI50 (ACHN): 39.9 µM (inactive)
GI50 (BT-549): 37.2 µM (inactive)
GI50 (UACC-257): 22.9 µM (inactive)
GI50 (SK-MEL-28): 61.9 µM (inactive)
GI50 (PC-3): 32.2 µM (inactive)
GI50 (Hs-578T): 74.6 µM (inactive)
GI50 (U-251): 50.6 µM (inactive)
GI50 (SK-MEL-5): 22.5 µM (inactive)
GI50 (OVCAR-3): 19.5 µM (inactive)
GI50 (NCI-H226): 46.9 µM (inactive)
GI50 (SN12C): 47.9 µM (inactive)
GI50 (M14): 39.3 µM (inactive)
GI50 (DU-145): 18.6 µM (inactive)
GI50 (RXF 393): 13.8 µM (inactive)
GI50 (SK-MEL-2): 39.5 µM (inactive)
GI50 (HT-29): 24.1 µM (inactive)
GI50 (UACC-62): 30.7 µM (inactive)
GI50 (HOP-92): 55.2 µM (inactive)
GI50 (MOLT-4): 17.1 µM (inactive)
GI50 (T47D): 2.39 µM (inactive)
GI50 (NCI-H23): 42.7 µM (inactive)
GI50 (LOX IMVI): 32.6 µM (inactive)

COc1ccc(/C=N\N(C)Cc2cccc3ccsc23)cc1
GI50 (UO-31): > 100 µM (inactive)
GI50 (NCI-H522): > 100 µM (inactive)
GI50 (NCI-H460): > 100 µM (inactive)
GI50 (EKVX): > 100 µM (inactive)
GI50 (Malme-3M): > 100 µM (inactive)
GI50 (SF-268): > 100 µM (inactive)
GI50 (SW-620): > 100 µM (inactive)
GI50 (CAKI-1): > 100 µM (inactive)
GI50 (IGROV-1): > 100 µM (inactive)
GI50 (SR): 90.2 µM (inactive)
GI50 (MDA-N): 70.6 µM (inactive)
GI50 (HL-60): > 100 µM (inactive)
GI50 (HCT-116): 72.4 µM (inactive)
GI50 (SK-OV-3): > 100 µM (inactive)
GI50 (MDA-MB-435): > 100 µM (inactive)
GI50 (OVCAR-4): 92.5 µM (inactive)
GI50 (TK-10): > 100 µM (inactive)
GI50 (KM12): > 100 µM (inactive)
GI50 (SNB-75): > 100 µM (inactive)
GI50 (OVCAR-8): > 100 µM (inactive)
GI50 (COLO 205): > 100 µM (inactive)
GI50 (HCC 2998): > 100 µM (inactive)
GI50 (A498): > 100 µM (inactive)
GI50 (SNB-19): > 100 µM (inactive)
GI50 (HOP-62): > 100 µM (inactive)
GI50 (SF-295): > 100 µM (inactive)
GI50 (MDA-MB-231): > 100 µM (inactive)
GI50 (K562): 54.8 µM (inactive)
GI50 (MCF7): > 100 µM (inactive)
GI50 (786-0): > 100 µM (inactive)
GI50 (NCI/ADR-RES): > 100 µM (inactive)
GI50 (CCRF-CEM): > 100 µM (inactive)
GI50 (HCT-15): 92.9 µM
GI50 (A549): > 100 µM (inactive)
GI50 (OVCAR-5): > 100 µM (inactive)
GI50 (ACHN): > 100 µM (inactive)
GI50 (BT-549): > 100 µM (inactive)
GI50 (UACC-257): 48.9 µM (inactive)
GI50 (SK-MEL-28): > 100 µM (inactive)
GI50 (PC-3): > 100 µM (inactive)
GI50 (Hs-578T): > 100 µM (inactive)
GI50 (U-251): > 100 µM (inactive)
GI50 (SK-MEL-5): 28.6 µM (inactive)
GI50 (OVCAR-3): 33.6 µM (inactive)
GI50 (NCI-H226): > 100 µM (inactive)
GI50 (SN12C): > 100 µM (inactive)
GI50 (M14): > 100 µM (inactive)
GI50 (DU-145): > 100 µM (inactive)
GI50 (RXF 393): > 100 µM (inactive)
GI50 (HT-29): 49.2 µM (inactive)
GI50 (UACC-62): > 100 µM (inactive)
GI50 (HOP-92): > 100 µM (inactive)
GI50 (MOLT-4): 46.8 µM (inactive)
GI50 (T47D): > 100 µM (inactive)
GI50 (NCI-H23): 60.4 µM (inactive)
GI50 (LOX IMVI): > 100 µM (inactive)

Cc1ccc2nc(-c3nccn3C)cc(C(=O)NC(C)CN(C)C)c2c1 (stereo not drawn)
GI50 (UO-31): 92.7 µM (inactive)
GI50 (NCI-H460): 24.9 µM (inactive)
GI50 (EKVX): > 100 µM (inactive)
GI50 (SF-539): 26.1 µM (inactive)
GI50 (Malme-3M): > 100 µM (inactive)
GI50 (SF-268): > 100 µM (inactive)
GI50 (SW-620): > 100 µM (inactive)
GI50 (CAKI-1): > 100 µM (inactive)
GI50 (IGROV-1): > 100 µM (inactive)
GI50 (SR): 0.711 µM (active)
GI50 (MDA-N): > 100 µM (inactive)
GI50 (HL-60): 10.1 µM (inactive)
GI50 (HCT-116): > 100 µM (inactive)
GI50 (MDA-MB-435): > 100 µM (inactive)
GI50 (TK-10): > 100 µM (inactive)
GI50 (KM12): > 100 µM (inactive)
GI50 (SNB-75): > 100 µM (inactive)
GI50 (OVCAR-8): > 100 µM (inactive)
GI50 (COLO 205): > 100 µM (inactive)
GI50 (HCC 2998): > 10 µM (inactive)
GI50 (A498): > 100 µM (inactive)
GI50 (SNB-19): > 100 µM (inactive)
GI50 (HOP-62): 34.9 µM (inactive)
GI50 (MDA-MB-231): > 100 µM (inactive)
GI50 (MCF7): 63 µM (inactive)
GI50 (786-0): > 100 µM (inactive)
GI50 (NCI/ADR-RES): > 100 µM (inactive)
GI50 (HCT-15): 55.1 µM
GI50 (A549): 89.9 µM (inactive)
GI50 (OVCAR-5): > 100 µM (inactive)
GI50 (ACHN): 60 µM (inactive)
GI50 (BT-549): > 100 µM (inactive)
GI50 (UACC-257): > 100 µM (inactive)
GI50 (SK-MEL-28): > 100 µM (inactive)
GI50 (PC-3): 25.3 µM (inactive)
GI50 (Hs-578T): > 100 µM (inactive)
GI50 (U-251): > 100 µM (inactive)
GI50 (SK-MEL-5): 97.9 µM (inactive)
GI50 (NCI-H226): 98.6 µM (inactive)
GI50 (SN12C): > 100 µM (inactive)
GI50 (M14): > 100 µM (inactive)
GI50 (DU-145): > 100 µM (inactive)
GI50 (RXF 393): > 100 µM (inactive)
GI50 (SK-MEL-2): > 100 µM (inactive)
GI50 (HT-29): 72.6 µM (inactive)
GI50 (UACC-62): > 100 µM (inactive)
GI50 (HOP-92): 46.3 µM (inactive)
GI50 (MOLT-4): > 10 µM (inactive)
GI50 (T47D): > 100 µM (inactive)
GI50 (NCI-H23): > 100 µM (inactive)
GI50 (LOX IMVI): 91.2 µM (inactive)
